# According to patent EP2557075A1, “New triazene compounds for treating cancer” (Trin Therapeutics GmbH, priority 2011, dated 2013):
# Where two headings read alike, the source gives them in different places.
# What was measured:
# MDA-MB231 = test: IC50 of triazenes in MDA-MB231 cell line (Experiment 3); type: cell-based; settings: Homo sapiens, MDA-MB-231; IC50 für die MDA-MB231 gemäß Experiment 3; used as incubation concentration for PBC
# Text: Die nachfolgenden Experimente 3 und 4 zeigen, dass die erfindungsgemäßen neuen Triazenverbindungen eine vergleichbare Anti-Tumorwirkung (IC50) in zahlreichen Krebszelllinien wie der HepG2 (Leber), HCT8 (Darm), DU-145 (Prostata), MCF-7 und MDA-MB-231 (Brust) und MiaPaca-2 (Bauchspeicheldrüse) bei bis zu 100fach niedrigeren Konzentrationen zeigen als vergleichbare Triazene wie DTIC, TMZ oder Substanzen wie sie in der WO 2009/004060 und der DE 1 7931 1 5 beschrieben sind.
# Verschiedene Triazene wie erfindungsgemäße Verbindungen nach Beispiel 1, DTIC, TMZ sowie Verbindungen nach Präparat 2 und 5 (entsprechend Verbindungen nach Präparat 2 und Beispiel 2a jeweils der WO 2009/004060) sowie Verbindungen nach Beispiel 33 der DE1793115 wurden in DMSO bzw. Wasser gelöst.
# (§1) Periphäre Blutzellen (PBC) werden jeweils mit der IC50 für die MDA-MB231 gemäß Experiment 3 der entsprechenden Substanzen inkubiert. Es wird gezeigt, dass die erfindungsgemäße Verbindung nach Beispiel 1 nicht mehr DNA-Schädigungen in den PBC erzeugt als eine Negativkontrolle, […]
# [1] = test system: periphere Blutzellen (PBC); test: Cell damage (apoptosis rate, CaspACE assay, flow cytometry) in peripheral blood cells (Experiment 5); type: cell-based; settings: for % Zellen in Apoptose: Versuch 1 Lymphozyten, 24 Stunden incubation at the IC50 for MDA-MB231
# Text: Um die therapeutische Breite der neuen Substanzen abschätzen zu können, wurden periphere Blutzellen (PBC) und hämatologische Zellen (Nalm-6; CEM und U-937) für 24 Stunden mit unterschiedlichen Dosen verschiedener Triazenverbindungen bzw. Doxorubicin als positive Kontrolle für die hämatologischen Zelllinien inkubiert. Das Maß der Zellschädigung (Apoptoserate) wurde mittels CaspACE™ Assay (am Durchflusszytometer) bestimmt.
# Verschiedene Triazene wie erfindungsgemäße Verbindungen nach Beispiel 1, TMZ sowie Verbindungen nach Präparat 2 und 5 (entsprechend Verbindungen nach Präparat 2 und Beispiel 2a jeweils der WO 2009/004060) wurden in DMSO bzw. Wasser entsprechend den Angaben in Abbildung 22 gelöst.
# as §1
# HL-60 = test: Growth inhibition (IC50) in leukaemic HL-60 cells (Experiment 7); type: cell-based; settings: Homo sapiens, HL-60, 24 Stunden
# Text: (§2) Hämatologische Zellen (CEM, HL-60) wurden für 24 Stunden mit unterschiedlichen Dosen verschiedener Triazenverbindungen inkubiert, um die IC50 zu bestimmen.
# CEM = test: Growth inhibition (IC50) in leukaemic CEM cells (Experiment 7); type: cell-based; settings: Homo sapiens, CCRF-CEM, 24 Stunden
# Text: as §2
# [2] = Formulation trials for intravenous application (Experiment 8); type: physicochemical
# Description: Um die Testergebnisse aus Experiment 7 in einem in-vivo Xenograft Modell zu bestätigen, wurden Formulierungsversuche mit Verbindungen nach Beispiel 1 sowie der Verbindung nach Beispiel 2 aus DE 1 793 1 15, als den wirksamsten Verbindungen aus Experiment 7, unternommen.
# 15mg der Verbindung nach Beispiel 1 werden in 30µL DMSO ([…]) gelöst. Diese Stocklösung wird in 270µL 1 M Na2CO3 Lösung gegeben und nur leicht geschwenkt, nicht aber mittels Ultraschallbad behandelt.
# Gleichermaßen sollte eine Formulierung für Verbindungen nach Beispiel 2 aus DE 1 7 93 1 15 hergestellt werden. Hier wurden 15µL der Verbindung nach Beispiel 2 vorgelegt. Bei einer Dichte von 1,08g/ml entsprach dies 16,2mg der Verbindung nach Beispiel 2. Dazu wurden 32,4µL DMSO gegeben. […] Sodann wurden 90µL einer frisch hergestellten 1 molaren Na2CO3 Lösung vorgelegt und 10µL der Lösung der Verbindung nach Beispiel 2 hinzugegeben. […] Auch mittels Ultraschallbad konnte keine Auflösung des erzeugten Niederschlags herbeiführen.
# MCF-7-Zellen = test: Intracellular metabolisation of triazenes in MCF-7 cell culture (Experiment 1); type: in vitro ADME; settings: MCF-7, 100nmol/ml, 100% FCS, binnen 20 Stunden
# Description: Es wird gezeigt, dass Verbindungen nach Beispiel 1 schneller und in größerer Menge intrazellulär metabolisiert werden als die als Vergleichssubstanzen eingesetzten Verbindungen nach Präparat 2 und 5 (entsprechend Verbindungen nach Präparat 2 und Beispiel 2a jeweils der WO 2009/004060).
# Die getesteten Verbindungen wurden wie folgt gelöst: • Erfindungsgemäße Verbindung: • Beispiel 1 : in 20 mg/ml DMSO
# Vergleichssubstanzen: • Präparat 2: in 50mg/ml DMSO, • Präparat 5: in 50mg/ml Wasser.
# Alle drei Substanzen wurden äquimolar in einer Dosis von 100nmol/ml auf 1 x 10^7 HepG2 bzw. MCF-7-Zellen gegeben. Als Zellkulturmedium wurde 100% fötales Kälberserum (FCS) verwendet. Für den Versuch wurde der Gehalt aus Ausgangsprodukt und Metaboliten im Zellüberstand nach 1, 3 und 6 (HepG2) bzw. 1,3 und 20 Stunden (MCF-7) Inkubationszeit ermittelt. Alle drei Substanzen zeigten in Kontrollversuchen mit 100% FCS nach 40 Stunden metabolische Stabilität.
# [3] = mean of Exp. 1-5, read-out: IC50 Mittelwert
# [4] = mean of Exp. 1-4, read-out: IC50 Mittelwert
Compound,IC50 (MDA-MB231) [µM],% Zellen in Apoptose [1],IC50 (HL-60; [3]) [µM],IC50 (HL-60; read-out: IC50 Exp. 1) [µM],IC50 (HL-60; read-out: IC50 Exp. 2) [µM],IC50 (HL-60; read-out: IC50 Exp. 3) [µM],IC50 (HL-60; read-out: IC50 Exp. 4) [µM],IC50 (HL-60; read-out: IC50 Exp. 5) [µM],IC50 (CEM; [4]) [µM],IC50 (CEM; read-out: IC50 Exp. 1) [µM],IC50 (CEM; read-out: IC50 Exp. 2) [µM],IC50 (CEM; read-out: IC50 Exp. 3) [µM],IC50 (CEM; read-out: IC50 Exp. 4) [µM],"Löslichkeit in DMSO ([2]; 16,2mg in 32,4µL DMSO)",Löslichkeit in der Formulierung ([2]; DMSO stock solution given into 1 M Na2CO3 Lösung),"stabile und verträgliche Formulierung ([2]; Lösungsmittel wie Cremophor, PEG400, Tween80, Poloxamer)",metabolisiert (MCF-7-Zellen) [%],"Zellschädigung (Apoptoserate) vs. Negativkontrolle ([1]; PBC, 24 stündige Inkubation)"
CN(C)N=Nc1ccc(C(=O)c2ccccc2)cc1 [Beispiel 2 der DE 1793115],25.5,"6,570%",10,8.69,11.8,11.1,9.47,9.08,10,10.3,10.3,8.69,10.7,löste sich vollständig,Sofort fiel weißer Niederschlag aus,nicht erreicht werden konnte,,
CN(C)/N=N/c1[nH]cnc1C(N)=O [Dacarbazine],625,"8,260%",,,,,,,,,,,,,,,,
COc1cccc2c1C(=O)c1c(O)c3c(c(O)c1C2=O)C[C@@](O)(C(=O)CO)C[C@@H]3O[C@H]1C[C@H](N)[C@H](O)[C@H](C)O1 [Doxorubicin],,,,0.0012,0.00116,0.000662,0.00131,0.00134,8510,6810,5890,9940,114,,,,,
CN(C)N=Nc1ccc(C(=O)c2ccc(OCCC(=O)NCC(=O)O)cc2)cc1 [Präparat 5],,,1190,829,879,1530,1510,,735,754,879,678,628,,,,~30,
"Cn1nnc2c(C(N)=O)ncn2c1=O [Temozolomide, 4-methyl-5-oxo-2,3,4,6,8-pentazabicyclo [4.3.0] nona-2,7,9-triene-9-carboxamide]",515,"15,320%",,,,,,,,,,,,,,,,Anstieg der Apoptoserate
